Measurements taken from the METLIN SMRT retention time set (Domingo-Almenara et al. 2019).

Assay: gradient 5% acetonitrile 3 min, to 50% in 2 min, to 85% in 15 min, held 3 min, 100 µL/min
Settings: column: Zorbax Extend-C18 2.1 x 50 mm; eluents: water / acetonitrile, 0.1% formic acid
In short: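 Values are retention times taken from adduct peaks that software picked and an analyst inspected. The pure standards were run as mixtures of ~100 molecules on HPLC linked to a quadrupole time-of-flight mass spectrometer, in positive and negative ionization mode. A Zorbax Extend-C18 column (2.1 × 50 mm, 1.8 μm) was used at 100 μL/min with water and acetonitrile, each including 0.1% formic acid.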

RP-LC retention time [s] | Compound
1090 | CC(C)c1ccc(Oc2nccn3c(=O)n(CC(=O)Nc4ccc(Br)cc4)nc23)cc1
785 | O=C(NCc1ccco1)C1CCN(c2ccc(=O)n(-c3cccc(Cl)c3)n2)CC1
786 | Cc1ccc(Cl)cc1NC(=O)C1CCN(S(=O)(=O)c2ccc3c(c2)NC(=O)CO3)CC1
631 | COCCn1c(CC2CCN(C(=O)Nc3cccc(Cl)c3C)C2)nc2cccnc21 (centres undefined)
1250 | CCCCN(CC)c1nc2cc(C(=O)OC)ccc2c(=O)n1-c1ccccc1
745 | Cc1ccc(CNC(=O)CCc2c(C)nn(-c3cc(N4CCCC4)ncn3)c2C)o1
917 | O=C(CSc1nnc(COc2ccccc2Cl)o1)Nc1nc(-c2ccccc2)cs1
1130 | CCc1ccc(-c2noc(Cn3cnc4c(cnn4-c4ccc(OC)cc4)c3=O)n2)cc1
910 | CCn1c(=O)c2cc(C(=O)NCCc3ccc(OC)c(OC)c3)nn2c2ccccc21
576 | CCS(=O)(=O)N1CCC(Cn2c(C)cnc2-c2ccccc2)C1 (centres undefined)
922 | O=C(Cn1cnc2c(-c3ccc(Cl)cc3)csc2c1=O)N1CCCCC1
986 | COc1ccc(-c2nnc(SCC(=O)Nc3ccc(C)cc3Br)o2)cc1
650 | Cc1oc(-c2[nH]ncc2C(=O)N(C)C)cc1S(=O)(=O)NC1CCCC1
1280 | CCCOc1nc2ccccc2nc1N1CCCC(C(=O)N2CCN(c3ccc(OC)cc3)CC2)C1 (centres undefined)
743 | COc1ccccc1NC(=O)NCCc1nc2cccnc2n1C1CCCCC1
1190 | O=S(=O)(Nc1ccc(F)c(F)c1)c1ccccc1-c1nc(-c2ccccc2)no1
771 | Cc1cccn2c(=O)cc(OCC(=O)Nc3ccc(SC(F)F)cc3)nc12
1030 | Cc1ccc(-n2ccc(=O)c(-c3nc(-c4cccc(Cl)c4)no3)n2)cc1
1130 | CCCn1c(=O)c(N2CCN(C(=O)CC3CCCC3)CC2)nc2ccccc21
647 | CN1C(=O)c2ccccc2C(C(=O)NCCCN2CCc3ccccc3C2)C1c1cccs1 (centres undefined)
770 | CSc1nnc(-c2cccc(S(=O)(=O)N3CCCC3)c2)o1
816 | Cc1ccc(CNS(=O)(=O)c2ccc(-c3nnc(C4CC4)o3)o2)o1

RP-LC retention time [s] | Compound
1150 | COc1ccc(-c2noc(C3(NC(=O)c4ccc(F)cc4)CCCCC3)n2)cc1
1240 | O=C(NCc1ccccc1Cl)c1c(O)c2cccnc2n(-c2ccc(F)cc2)c1=O
904 | CCSc1nnc(NC(=O)CN(C)c2nc3c(Cl)cccc3s2)s1
950 | CCCC(=O)Nc1nc2ccc(CCC(=O)Nc3cccc(C(=O)OCC)c3)cc2s1
1340 | Cc1ccc(Cn2c(C(=O)NC3CCC(C)CC3)cc3sccc32)cc1 (centres undefined)
864 | Cc1cccc(-n2c(=O)c3c(cc(C)n3C)n(CC(=O)N(C)c3ccccc3)c2=O)c1
995 | CSc1ccccc1NC(=O)C(=O)NCC(C)(O)c1ccco1 (centres undefined)
916 | Cc1ccc(C(=O)N2CCC(COc3ccc(C(=O)NC(C)C)cc3)CC2)cc1C
624 | COCCNC(=O)CSc1nc(-c2ccc(F)cc2)[nH]c1-c1ccccc1
643 | CC(C)c1ccc(S(=O)(=O)Nc2cnc(N3CCNCC3)c(C(=O)NCC3CCCO3)c2)cc1 (centres undefined)
738 | CN(CC1CCOC1)C(=O)Nc1cccc(Cl)c1 (centres undefined)
582 | CCNC(=O)c1cc(C)nc2ccc(CC)cc12
803 | CC(=O)Nc1cc(-c2nc(-c3ccc4oc(C)nc4c3)no2)ccc1C
735 | Cc1nc2nc(-c3ccccc3)nn2c(C)c1CC(=O)N1CCCCC1
739 | COc1ccc(-c2cc(N3CCC(NC(=O)c4ccc(Cl)cc4)C3)n[nH]2)cc1 (centres undefined)
876 | O=C(NCC12CCC=C1N(CC1CC1)C(=O)CC2)Nc1cccc(F)c1 (centres undefined)
865 | CCCCOc1ccc(C(=O)NCc2ccco2)cc1
954 | O=C(CCn1nnc2cc(-c3noc(-c4ccccc4Br)n3)ccc21)N1CCCC1
1170 | COc1ccccc1C(=O)Nc1cnc(-c2ccc(Cl)cc2)nc1
627 | COCCNC(=O)N1CCN(c2ncccc2-c2nnc(C(C)C)o2)CC1
940 | Cn1nccc1C(=O)N1CCCC1c1nc(-c2cccc(C(F)(F)F)c2)no1 (centres undefined)
663 | CN(C)c1nc2ncn3c(=O)n(CC(=O)NC4CCCCC4)nc3c2s1

RP-LC retention time [s] | Compound
746 | COc1ccc(-c2nc3cccnc3n2C2CCN(C(=O)Nc3cccc(OC)c3)C2)cc1 (centres undefined)
1050 | O=C(O)c1ccccc1-n1c2ccccc2c2ccccc21
659 | C=CCOC(=O)/C=C\C(=O)NC(N)=O
755 | O=C(Nc1ccc(F)cc1F)Nc1c[nH]c2ccccc12
768 | O=C(O)c1cn(-c2ccc3c(c2)CCC3)nn1
1010 | COc1ccc(-c2noc(C3CC(=O)N(c4ccc(OC)c(Cl)c4)C3)n2)c(OC)c1 (centres undefined)
871 | O=C(Nc1cccn2c(C3CCC3)nnc12)c1ccc(Cl)s1
602 | COCc1cc(=O)n(CC(=O)Nc2cccc(C)c2C)c(N)n1
707 | O=C(Cc1ccc(F)cc1)NC1CCN(c2cc(-c3cccs3)[nH]n2)C1 (centres undefined)
942 | CCc1ccc2c(c1)cc(S(=O)(=O)c1ccccc1)c(=O)n2CC(=O)NC1CCCC1
1060 | CCc1nc(-c2csc(S(=O)(=O)N3CCCC(C(=O)Nc4ccccc4OC)C3)c2)no1 (centres undefined)
850 | O=C(NCc1cccc(Br)c1)c1csc(C(=O)N2CCCC2)n1
1190 | O=C(Cc1ccc(Cl)cc1)Nc1ccsc1-c1nnc(C2CC2)o1
880 | CCOc1ccc(NC(=O)C2CCN(S(=O)(=O)c3ccc4c(c3)NC(=O)C(C)O4)CC2)cc1 (centres undefined)
800 | CCNC(=O)c1sc2nc(-c3cccc(F)c3)c(NCCOC)n2c1C
527 | Cc1ncsc1CN1CCCC(n2c(C)cnc2-c2cccnc2)C1 (centres undefined)
848 | CCn1c(=O)oc2cc(S(=O)(=O)N3CCN(C(=O)C4(c5ccccc5)CC4)CC3)ccc21
618 | COc1ccc(S(=O)(=O)N2CCCn3ccnc3C2c2cnn(C)c2)cc1Cl (centres undefined)
734 | CC(C)c1cc(C(C)C)n2nc(N)nc2n1
1260 | COc1cccc(N2CCN(S(=O)(=O)c3cc(-c4cc(C(F)(F)F)on4)sc3C)CC2)c1
757 | CC(C)CCNC(=O)Cn1nc(S(=O)(=O)c2cccc(F)c2)ccc1=O
989 | Cc1cc(C)cc(NS(=O)(=O)c2ccc(-c3c(C)noc3C)cc2)c1

RP-LC retention time [s] | Compound
593 | Cc1ccc(CN2CCN(C(=O)c3cccc4[nH]cc(CN5CCSCC5)c34)CC2)cc1
766 | CCOC(=O)C1CCN(C(=O)C2c3ccccc3C(=O)N3CCc4cc(OC)c(OC)cc4C23)CC1 (centres undefined)
953 | CCC1Oc2ccc(S(=O)(=O)N3CCC(C(=O)NCc4cccc(OC)c4)CC3)cc2NC1=O (centres undefined)
732 | Cc1ccc(NC(=O)C2CCN(S(=O)(=O)c3ccc4c(c3)NC(=O)CO4)CC2)c(C)c1
716 | Cc1ccc(Cn2c(CN3CCC(C(=O)NC4CC4)CC3)cc3ccccc32)cc1
1250 | Cc1ccc(Cl)cc1NC(=O)Cc1c(C)nn(-c2nc(-c3ccc(F)cc3)cs2)c1C
709 | COc1ccc(Nc2c(-c3ccc4c(c3)OCO4)nc3cnccn23)cc1OC
1010 | O=C(Nc1cnn(-c2ncc(N3CCCCC3)cn2)c1)c1ccc(C(F)(F)F)cc1
963 | CC(C)c1ccc(-c2ccnc3c(C(=O)N4CCN(c5ncccn5)CC4)cnn23)cc1
788 | COc1ccc(S(=O)(=O)N2CC(F)(F)C[C@H]2c2nnc(C)o2)cc1
557 | COc1ccc(-c2nc(NCCCN3CCOCC3)c3ccccc3n2)cc1
840 | COc1ccc2[nH]cc(CCNC(=O)c3cccc(Cl)c3)c2c1
907 | Cc1cc(C)n2c(Nc3ccccc3C)c(-c3ccc(O)cc3)nc2n1
566 | Cc1cc(N2CCOCC2)nc(N2CCN(C(=O)Cc3ccc(F)cc3)CC2)n1
1210 | CCn1c(C(=O)NCc2ccc(Cl)cc2)cc2sccc21
1230 | CCn1c(C(=O)Nc2cc(C)ccc2C)cc2sc(Cl)cc21
855 | COC(=O)c1nnc2c(-c3ccc(F)cc3)c(C)nn2c1C
1050 | Cn1cc(C2=CCN(S(=O)(=O)c3ccc(F)c(Cl)c3)CC2)c2cccnc21
665 | CCCCNC(=O)Cc1c(C)n(C)c2nc(-c3ccccc3)nn2c1=O
1310 | CC1=C(C(=O)Nc2cc(Cl)ccc2C(=O)NC2CCC(C)CC2)SCCO1 (centres undefined)
960 | O=C1C2N=NN(Cc3nc(-c4ccccc4Br)no3)C2C(=O)N1c1ccc(F)cc1 (centres undefined)
691 | O=C(c1ccccc1Sc1nccnc1Oc1ccccc1)N1CCN(c2ccccn2)CC1

Compound | RP-LC retention time [s]
O=C1OC(c2ccccc2)=N/C1=C\c1ccc(N(CCCl)CCCl)cc1 | 1240
